Measurements published in PubChem BioAssay (NCI).
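In this assay, cells in 96-well plates receive the compound at five concentrations for 48 hours. Endpoints are linearly interpolated between the surrounding concentrations. At the GI50, growth is halved. The concentration for full growth arrest is given as TGI.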

Key:
Assay in all cases: DTP human tumour cell line panel, 48 h; in the data active means GI50 below about 0.43 µM; inactive means the rest
[1] = tested on: MDA-MB-435
[2] = tested on: OVCAR-4 ovarian
[3] = tested on: UO-31 renal
[4] = tested on: OVCAR-3 ovarian
[5] = tested on: SK-MEL-28 melanoma
[6] = tested on: NCI-H460 lung
[7] = tested on: MALME-3M melanoma
[8] = tested on: A498 renal
[9] = tested on: IGROV1 ovarian
[10] = tested on: K-562 leukemia
[11] = tested on: HOP-92 NSCLC
[12] = tested on: U251 CNS
[13] = tested on: LOX IMVI melanoma
[14] = tested on: OVCAR-8 ovarian
[15] = tested on: MDA-MB-231 breast
[16] = tested on: 786-0 renal
[17] = tested on: NCI-H23 lung
[18] = tested on: RPMI-8226 leukemia
[19] = tested on: SF-539 CNS
[20] = tested on: SNB-19 CNS
[21] = tested on: UACC-62 melanoma
[22] = tested on: EKVX NSCLC
[23] = tested on: CCRF-CEM leukemia
[24] = tested on: SF-268 CNS
[25] = tested on: BT-549 breast
[26] = tested on: HT29 colon
[27] = tested on: HOP-62 NSCLC
[28] = tested on: M14 melanoma
[29] = tested on: T-47D breast
[30] = tested on: ACHN renal
[31] = tested on: A549 NSCLC
[32] = tested on: HCT-116 colon
[33] = tested on: COLO 205 colon
[34] = tested on: MOLT-4 leukemia
[35] = tested on: MCF7 breast
[36] = tested on: NCI-H226 lung
[37] = tested on: SF-295 CNS
[38] = tested on: OVCAR-5 ovarian
[39] = tested on: UACC-257 melanoma
[40] = tested on: CAKI-1 renal
[41] = tested on: PC-3 prostate
[42] = tested on: NCI-H522 lung
[43] = tested on: SN12C renal
[44] = tested on: HCT-15 colon
[45] = tested on: HS 578T breast
[46] = tested on: RXF 393 renal
[47] = tested on: DU-145 prostate
[48] = tested on: KM12 colon
[49] = tested on: SW-620 colon
[50] = tested on: SK-MEL-5 melanoma
[51] = tested on: TK-10 renal
[52] = tested on: SNB-75 CNS
[53] = tested on: SK-MEL-2 melanoma
[54] = tested on: HCC-2998 colon
[55] = tested on: HL-60(TB) leukemia
[56] = tested on: SK-OV-3 ovarian
[57] = tested on: NCI/ADR-RES ovarian

CCc1nc(-n2c(-c3ccccc3)nc3ccccc3c2=O)nc(N)c1-c1ccc(Cl)cc1
33 µM: TGI [50]
> 100 µM: TGI [1] | TGI [2] | TGI [3] | TGI [5] | TGI [6] | TGI [7] | TGI [9] | TGI [10] | TGI [11] | TGI [12] | TGI [13] | TGI [14] | TGI [15] | TGI [16] | TGI [18] | TGI [19] | TGI [20] | TGI [21] | TGI [22] | TGI [23] | TGI [24] | TGI [25] | TGI [26] | TGI [27] | TGI [28] | TGI [30] | TGI [31] | TGI [32] | TGI [33] | TGI [34] | TGI [35] | TGI [36] | TGI [38] | TGI [39] | TGI [42] | TGI [43] | TGI [44] | TGI [45] | TGI [46] | TGI [47] | TGI [48] | TGI [49] | TGI [51] | TGI [52]
41 µM: TGI [40]
90.6 µM: TGI [41]
39.7 µM: TGI [17]
92.7 µM: TGI [8]
30.7 µM: TGI [4]
81 µM: TGI [29]
inactive: GI50 [1] 3.48 µM | GI50 [2] > 100 µM | GI50 [3] 48.6 µM | GI50 [4] 0.554 µM | GI50 [5] > 100 µM | GI50 [6] 8 µM | GI50 [7] 23.9 µM | GI50 [8] 25 µM | GI50 [9] 27.1 µM | GI50 [10] 3.06 µM | GI50 [11] 13.4 µM | GI50 [12] 9.19 µM | GI50 [13] 3.94 µM | GI50 [14] 7.96 µM | GI50 [15] > 100 µM | GI50 [16] 5.64 µM | GI50 [17] 2.9 µM | GI50 [18] 50.3 µM | GI50 [19] 23.7 µM | GI50 [20] 6.46 µM | GI50 [21] 6.55 µM | GI50 [22] > 100 µM | GI50 [23] 9.94 µM | GI50 [24] 73.2 µM | GI50 [25] 90.7 µM | GI50 [26] 6.62 µM | GI50 [27] 14.7 µM | GI50 [28] 6.22 µM | GI50 [29] 27 µM | GI50 [30] 5.53 µM | GI50 [31] 4.98 µM | GI50 [32] 3.28 µM | GI50 [33] 14.2 µM | GI50 [34] 6.13 µM | GI50 [35] 80.7 µM | GI50 [36] 69.2 µM | GI50 [37] 2.26 µM | GI50 [38] 2.86 µM | GI50 [39] 40.3 µM | GI50 [40] 14.7 µM | GI50 [41] 5.64 µM | GI50 [42] 52.2 µM | GI50 [43] 15.6 µM | GI50 [44] 6.43 µM | GI50 [45] 34.8 µM | GI50 [46] > 100 µM | GI50 [47] 72.6 µM | GI50 [48] 26.6 µM | GI50 [49] 4.64 µM | GI50 [50] 5.6 µM | GI50 [51] 23.1 µM | GI50 [52] 48.2 µM
20.2 µM: TGI [37]

CC(C)(C)C(=O)OCc1nc2cc3c(cc2c(=O)[nH]1)CCC3=O
inactive: GI50 [53] > 100 µM | GI50 [1] > 100 µM | GI50 [2] > 100 µM | GI50 [3] > 100 µM | GI50 [4] > 100 µM | GI50 [5] > 100 µM | GI50 [6] > 100 µM | GI50 [7] > 100 µM | GI50 [8] > 100 µM | GI50 [9] > 100 µM | GI50 [10] > 100 µM | GI50 [11] > 100 µM | GI50 [12] > 100 µM | GI50 [13] > 100 µM | GI50 [14] > 100 µM | GI50 [15] > 100 µM | GI50 [16] > 100 µM | GI50 [17] > 100 µM | GI50 [18] > 100 µM | GI50 [19] > 100 µM | GI50 [20] > 100 µM | GI50 [21] > 100 µM | GI50 [23] > 100 µM | GI50 [24] > 100 µM | GI50 [25] > 100 µM | GI50 [26] > 100 µM | GI50 [27] > 100 µM | GI50 [28] > 100 µM | GI50 [54] > 100 µM | GI50 [29] > 100 µM | GI50 [30] > 100 µM | GI50 [31] > 100 µM | GI50 [32] > 100 µM | GI50 [33] > 100 µM | GI50 [34] > 100 µM | GI50 [35] > 100 µM | GI50 [36] > 100 µM | GI50 [37] > 100 µM | GI50 [38] > 100 µM | GI50 [39] > 100 µM | GI50 [40] > 100 µM | GI50 [41] > 100 µM | GI50 [42] > 100 µM | GI50 [43] > 100 µM | GI50 [55] > 100 µM | GI50 [44] > 100 µM | GI50 [45] > 100 µM | GI50 [46] > 100 µM | GI50 [56] > 100 µM | GI50 [47] > 100 µM | GI50 [48] > 100 µM | GI50 [57] > 100 µM | GI50 [49] > 100 µM | GI50 [50] > 100 µM | GI50 [51] > 100 µM | GI50 [52] > 100 µM
> 100 µM: TGI [53] | TGI [1] | TGI [2] | TGI [3] | TGI [4] | TGI [5] | TGI [6] | TGI [7] | TGI [8] | TGI [9] | TGI [10] | TGI [11] | TGI [12] | TGI [13] | TGI [14] | TGI [15] | TGI [16] | TGI [17] | TGI [18] | TGI [19] | TGI [20] | TGI [21] | TGI [23] | TGI [24] | TGI [25] | TGI [26] | TGI [27] | TGI [28] | TGI [54] | TGI [29] | TGI [30] | TGI [31] | TGI [32] | TGI [33] | TGI [34] | TGI [35] | TGI [36] | TGI [37] | TGI [38] | TGI [39] | TGI [40] | TGI [41] | TGI [42] | TGI [43] | TGI [55] | TGI [44] | TGI [45] | TGI [46] | TGI [56] | TGI [47] | TGI [48] | TGI [57] | TGI [49] | TGI [50] | TGI [51] | TGI [52]
